Measurements reported in patent US20150208649A1, “NOVEL COMPOSITIONS COMPRISING P-HYDROXYBENZYLAMINE” (DSM IP ASSETS B.V., priority 2012, published 2015).
In brackets after ≈: the same amount, converted by molar mass.

Legend:
Experiment in all cases: MIC, agar dilution method according to DIN 58 940
Type in all cases: cell-based
[1] = test system: Pseudomonas aeruginosa (P. aeruginosa) ATCC 9027; settings: for MIC mix: 18 h; for ratio [MIC (single)/(MIC (mixture)]): >1 indicates a synergistic effect; for MIC: Pseudomonas aeruginosa, ATCC9027, single compound
Experimental: (§1) The antimicrobial activity was assessed by determination of the Minimum Inhibitory Concentration (MIC) using the agar dilution method according to DIN 58 940 at the Labor L+SAG, D-Bad Bocklet-Grossenbrach.
(§2) Culture plates with a diameter of 5.5 cm were prepared with fresh, kept liquid (50° C.) Mueller-Hinton Agar (double concentrated, Merck 1.05437)/aqua purificata comprising the compound/compound mixtures in the concentrations indicated in Table 1 according to standard methods. After solidifying and drying (about 1 h at 36° C.), the culture plates were inoculated with 1 μl of a suspension of the respective microorganism with the colony forming unit as outlined in table 1. The inoculated plates were then incubated at 36° C. The MIC's (i.e. the concentrations where still no growth could be observed) were determined after 18 h for E. coli, P. aeruginosa and S. aureus; after 48 h for P. acnes and after 78 h for A. brasiliensis and C. albicans. Per sample two culture plates were prepared. As control incubated and non-incubated cultures were used.
(§3) The suspensions of the microorganisms No. 1-4 were prepared by homogeneous suspension of 3-5 colonies of the same morphology in physiological NaCl-solution. The suspensions were adjusted such, that the haze corresponded to the Mac Farland standard 1.0 (about 3.0*10^8 KBE*/ml). For the preparation of the suspensions of the microorganisms 5 and 6, the microorganisms have been taken with a sterile swab and diluted in an amount of physiological NaCl solution such, that the haze corresponded to the Mac Farland standard 1.0. Afterwards the suspensions of the microorganisms 1 and 3-6 have been further diluted with physiological NaCl-solution in a ratio of 1:10. The colony count was determined using a spiral plater system (see table 2).

[2] = test system: Propionibacterium acnes (P. acnes) ATCC 11828; settings: for MIC: Cutibacterium acnes, ATCC11828, single compound; for MIC mix: 48 h; for ratio [MIC (single)/(MIC (mixture)]): >1 indicates a synergistic effect
Experimental: as §1, §2, §3

[3] = test system: Escherichia coli (E. coli) ATCC 8739; settings: for MIC mix: 18 h; for ratio [MIC (single)/(MIC (mixture)]): >1 indicates a synergistic effect; for MIC: Escherichia coli, ATCC8739, single compound
Experimental: as §1, §2, §3

[4] = test system: Candida albicans (C. albicans) ATCC 10231; settings: for MIC mix: 78 h; for ratio [MIC (single)/(MIC (mixture)]): >1 indicates a synergistic effect; for MIC: Candida albicans, ATCC10231, single compound
Experimental: as §1, §2, §3

[5] = test system: Staphylococcus aureus (S. aureus) ATCC 6538; settings: for MIC mix: 18 h; for ratio [MIC (single)/(MIC (mixture)]): >1 indicates a synergistic effect; for MIC: Staphylococcus aureus, ATCC6538, single compound
Experimental: as §1, §2, §3

[6] = test system: Aspergillus brasiliensis (A. brasiliensis) ATCC 16404; settings: for MIC mix: 78 h; for ratio [MIC (single)/(MIC (mixture)]): >1 indicates a synergistic effect; for MIC: Aspergillus brasiliensis, ATCC16404, single compound
Experimental: as §1, §2, §3

[7] = concentration of the component in mixture pHBA/MI
[8] = single compound, 18 h at 36° C.
[9] = single compound, 78 h at 36° C.
[10] = concentration of the component in mixture pHBA/MP
[11] = concentration of the component in mixture pHBA/PE

Cn1sccc1=O [MI, Methylisothiazolinone, reference compound]
MIC mix [1, 7]: <10 µg/mL | ratio [MIC (single)/(MIC (mixture)]) ([1]; mixture pHBA/MI): >100 | MIC single [1, 8]: 40 µg/mL (≈ 0.347 mM) | MIC single ([2]; single compound, 48 h at 36° C.): 30 µg/mL (≈ 0.261 mM) | MIC mix [3, 7]: 20 µg/mL (≈ 0.174 mM) | ratio [MIC (single)/(MIC (mixture)]) ([3]; mixture pHBA/MI): 1.00 | MIC single [3, 8]: 20 µg/mL (≈ 0.174 mM) | MIC mix [4, 7]: 20 µg/mL (≈ 0.174 mM) | ratio [MIC (single)/(MIC (mixture)]) ([4]; mixture pHBA/MI): 1.50 | MIC single [4, 9]: 30 µg/mL (≈ 0.261 mM) | MIC mix [5, 7]: 40 µg/mL (≈ 0.347 mM) | ratio [MIC (single)/(MIC (mixture)]) ([5]; mixture pHBA/MI): 1.75 | MIC single [5, 8]: 70 µg/mL (≈ 0.608 mM) | MIC mix [6, 7]: 20 µg/mL (≈ 0.174 mM) | ratio [MIC (single)/(MIC (mixture)]) ([6]; mixture pHBA/MI): 1.50 | MIC single [6, 9]: 30 µg/mL (≈ 0.261 mM)

COC(=O)c1ccc(O)cc1 [MP, Methylparabene, reference compound]
MIC ([1]; 18 h at 36° C.): 2000 µg/mL (≈ 13.1 mM) | MIC mix [1, 10]: 590 µg/mL (≈ 3.88 mM) | ratio [MIC (single)/(MIC (mixture)]) ([1]; mixture pHBA/MP): 3.39 | MIC ([2]; 48 h at 36° C.): 1330 µg/mL (≈ 8.74 mM) | MIC mix [2, 7]: <10 µg/mL | MIC mix [2, 10]: 890 µg/mL (≈ 5.85 mM) | ratio [MIC (single)/(MIC (mixture)]) ([2]; mixture pHBA/MI): >100 | ratio [MIC (single)/(MIC (mixture)]) ([2]; mixture pHBA/MP): 1.49 | MIC ([3]; 18 h at 36° C.): 890 µg/mL (≈ 5.85 mM) | MIC mix [3, 10]: 390 µg/mL (≈ 2.56 mM) | ratio [MIC (single)/(MIC (mixture)]) ([3]; mixture pHBA/MP): 2.28 | MIC ([4]; 78 h at 36° C.): 590 µg/mL (≈ 3.88 mM) | MIC mix [4, 10]: 390 µg/mL (≈ 2.56 mM) | ratio [MIC (single)/(MIC (mixture)]) ([4]; mixture pHBA/MP): 1.51 | MIC ([5]; 18 h at 36° C.): 2000 µg/mL (≈ 13.1 mM) | MIC mix [5, 10]: 890 µg/mL (≈ 5.85 mM) | ratio [MIC (single)/(MIC (mixture)]) ([5]; mixture pHBA/MP): 2.25 | MIC ([6]; 78 h at 36° C.): 390 µg/mL (≈ 2.56 mM) | MIC mix [6, 10]: 260 µg/mL (≈ 1.71 mM) | ratio [MIC (single)/(MIC (mixture)]) ([6]; mixture pHBA/MP): 1.50

NCc1ccc(O)cc1 [pHBA, p-Hydroxybenzylamine]
MIC ([1]; 18 h at 36° C.): 5270 µg/mL (≈ 42.8 mM) | MIC mix [1, 7]: 650 µg/mL (≈ 5.28 mM) | MIC mix [1, 10]: 2400 µg/mL (≈ 19.5 mM) | MIC mix [1, 11]: 3510 µg/mL (≈ 28.5 mM) | ratio [MIC (single)/(MIC (mixture)]) ([1]; mixture pHBA/MI): 8.11 | ratio [MIC (single)/(MIC (mixture)]) ([1]; mixture pHBA/MP): 2.20 | ratio [MIC (single)/(MIC (mixture)]) ([1]; mixture pHBA/PE): 1.50 | MIC ([2]; 48 h at 36° C.): 7900 µg/mL (≈ 64.1 mM) | MIC mix [2, 7]: 650 µg/mL (≈ 5.28 mM) | MIC mix [2, 10]: 3560 µg/mL (≈ 28.9 mM) | MIC mix [2, 11]: 5270 µg/mL (≈ 42.8 mM) | ratio [MIC (single)/(MIC (mixture)]) ([2]; mixture pHBA/MI): 12.15 | ratio [MIC (single)/(MIC (mixture)]) ([2]; mixture pHBA/MP): 2.22 | ratio [MIC (single)/(MIC (mixture)]) ([2]; mixture pHBA/PE): 1.50 | MIC ([3]; 18 h at 36° C.): 5270 µg/mL (≈ 42.8 mM) | MIC mix [3, 7]: 980 µg/mL (≈ 7.96 mM) | MIC mix [3, 10]: 1580 µg/mL (≈ 12.8 mM) | MIC mix [3, 11]: 3510 µg/mL (≈ 28.5 mM) | ratio [MIC (single)/(MIC (mixture)]) ([3]; mixture pHBA/MI): 5.38 | ratio [MIC (single)/(MIC (mixture)]) ([3]; mixture pHBA/MP): 3.34 | ratio [MIC (single)/(MIC (mixture)]) ([3]; mixture pHBA/PE): 1.50 | MIC ([4]; 78 h at 36° C.): 5270 µg/mL (≈ 42.8 mM) | MIC mix [4, 7]: 980 µg/mL (≈ 7.96 mM) | MIC mix [4, 10]: 1580 µg/mL (≈ 12.8 mM) | MIC mix [4, 11]: 2340 µg/mL (≈ 19 mM) | ratio [MIC (single)/(MIC (mixture)]) ([4]; mixture pHBA/MI): 5.38 | ratio [MIC (single)/(MIC (mixture)]) ([4]; mixture pHBA/MP): 3.34 | ratio [MIC (single)/(MIC (mixture)]) ([4]; mixture pHBA/PE): 2.25 | MIC ([5]; 18 h at 36° C.): 5270 µg/mL (≈ 42.8 mM) | MIC mix [5, 7]: 2200 µg/mL (≈ 17.9 mM) | MIC mix [5, 10]: 3560 µg/mL (≈ 28.9 mM) | MIC mix [5, 11]: 7900 µg/mL (≈ 64.1 mM) | ratio [MIC (single)/(MIC (mixture)]) ([5]; mixture pHBA/MI): 2.4 | ratio [MIC (single)/(MIC (mixture)]) ([5]; mixture pHBA/MP): 1.48 | ratio [MIC (single)/(MIC (mixture)]) ([5]; mixture pHBA/PE): 0.67 | MIC ([6]; 78 h at 36° C.): 5270 µg/mL (≈ 42.8 mM) | MIC mix [6, 7]: 980 µg/mL (≈ 7.96 mM) | MIC mix [6, 10]: 1050 µg/mL (≈ 8.53 mM) | MIC mix [6, 11]: 2340 µg/mL (≈ 19 mM) | ratio [MIC (single)/(MIC (mixture)]) ([6]; mixture pHBA/MI): 5.38 | ratio [MIC (single)/(MIC (mixture)]) ([6]; mixture pHBA/MP): 5.02 | ratio [MIC (single)/(MIC (mixture)]) ([6]; mixture pHBA/PE): 2.25
